# Results: patent US11998008B2, “Pesticides and methods of controlling pests” (The State of Israel, Ministry of Agriculture & Rural …, priority 2017, dated 2024)
# Columns and labels:
# S. rolfsii = test: Fungicidal activity assay on PDA in sealed Petri dish (growth inhibition and mortality); type: cell-based, Sclerotinia rolfsii; details: Agroathelia rolfsii; S. rolfsii; NA + number = still viable in the highest concentration tested (given as >); read-out: M - Mortality, minimal concentration that killed the fungus
# [1] = tested on: F. oxysporum f. sp. radicis-cucumerium; test: as above; type: cell-based, Fusarium oxysporum f. sp. radicis-cucumerinum; details: Fusarium oxysporum, NA + number = still viable in the highest concentration tested (given as >), read-out: M - Mortality, minimal concentration that killed the fungus
# Solanum nigrum seeds = test: Viability of weed seeds buried in sandy soil; type: in vivo; details: 54 ppm of emulsion, depth 10 cm, 6 days in soil, evaluated 6 days after resowing
# Description: The effect of trans-2-octenal was also examined on the weed Solanum nigrum. To this end, 20 seeds of this weed were put in tea bags and buried in sandy soil at the depth of 10 cm. Six (6) days later, 54 ppm of emulsion of trans-2-octenal were applied via the irrigation system. After additional 6 days the seeds were removed from the soil and sown in fresh loam pots. A control experiment was performed as above except that the seeds were irrigated with tap water without the compound. The viability of the seeds was evaluated after 6 days.
# tomato seedlings = test: Phytotoxicity: growth of tomato seedlings in treated sandy soil in pots; type: in vivo; details: soil treated with 54 ppm, nine days
# Description: Sandy soil from a plot that was treated with 54 ppm of trans-2-octenal was removed to small pots in which either seeds of corn, cotton, and peanut were sown (FIGS. 16A-16C) or tomato seedlings were planted therein (FIG. 16E).
# [2] = tested on: Fusarium oxysporum f sp. radicis-cucumerinum (FORC); test: Effect on FORC in loam soil in buckets; type: in vivo
# Description: (§1) The activity of trans-2-octenal was examined against phytopathogenic fungi and weeds. The experiment was performed in large buckets (110 L), which bottoms were removed, and therefore the loam in the bucket was continuous with the ground. The soil was inoculated one day prior the application of the compound. Soil inoculation was performed as follows: spores of Fusarium oxysporum f sp. radicis-cucumerinum (FORC) were collected from culture plates and 25 mL of spore suspension at concentration of 9×10^5 was mixed with 10 L of tap water and then poured on the soil of each bucket. […] Half of the buckets were sealed with nylon while the other half remained open. Five days later, soil samples from three different depths (10, 20, and 30 cm) were taken from each bucket for fungal isolation and determination of fungal survival. […] After 3 days, the number of colonies was counted. […] Similar results were obtained at close condition, except at depth 30 cm at concentration of 62.5 ppm.
# P. digitatum = test: Fungicidal activity assay on PDA in sealed Petri dish (growth inhibition and mortality); type: cell-based, Penicillium digitatum; details: Penicillium digitatum, NA + number = still viable in the highest concentration tested (given as >), read-out: M - Mortality, minimal concentration that killed the fungus
# Description: In exemplary procedures, the fungicidial activity of the compounds listed in Table 2 were examined by activity assays as follow: Petri dishes, 90 mm in diameter, with air volume of 80 mL, contained 10-12 mL of growth medium comprising potato dextrose agar (PDA) (Acumedia, Lansing, Michigan, USA) amended with tetracycline at 12 μg/mL. Each compound was placed on a disconnected cover from an Eppendorf tube that was located in the middle of the Petri dish and a hyphae-containing plug of each test fungus was added to the culture plate. In exemplary procedures, the tested compounds trans-2-heptenal, trans-2-octenal were tested in comparison with octanal, trans-2-octen-1-ol, methyl trans-2-octenoate, trans-3-octen-2-one and 3-pentenenitrile. In addition, cyclic ketones as 2-cyclopenten-1-one, 2-cyclohexen-1-one and α-tetralone were also examined. Then, the culture plate was sealed with parafilm and incubated at room-temperature for 2 days, after which the growth of the test fungi in those dishes was compared with those in the test compound-free control dishes. At the end of the assay, the viability of each test fungus was evaluated by transferring inoculum plugs to fresh PDA plates and observing the growth that developed within the next 2 days. The test fungi used in this study included but were not limited to Alternaria alternata, Botrytis cinerea, Sclerotinia rolfsii, Penicillium digitatum, Fusarium oxysporum f. sp. radicis-cucumerinum and Rhizoctonia solani.
# Tomato plants = test: Phytotoxicity on tomato plants in soil, compound on perlite particles; type: in vivo; details: one day after treatment
# Excerpt: In exemplary procedures, the phytotixicity of trans-2-octenal and 2-cyclopenten-1-one was examined in triplicates for each concentration: 250, 1,000, 4,000, and 20,000 ppm compared to control.
# [3] = tested on: Fusarium oxysporum f sp. radicis-lycopersici (Forl); test: Effect on Forl in loam soil in buckets, applied by irrigation system; type: in vivo; details: open and close conditions, except depth 30 cm at the lowest concentration in close condition
# Description: as §1
# The experiment was repeated with the following modifications: different phytopathogenic fungus—Fusarium oxysporum f sp. radicis-lycopersici (Forl), lower concentrations—31.25, 62.5, and 93.75 ppm, and the application of the compound was done using the irrigation system.
smiles,measurement,setting,value
CCCCC/C=C/C=O [trans-2-octenal],MFC,S. rolfsii,6.25 µg/mL
same,MFC,[1],6.25 µg/mL
same,viability of the seeds,Solanum nigrum seeds,eliminated seeds viability
same,growth of the tomato seedling in treated versus untreated soil,tomato seedlings,no significant difference
same,concentration sufficient to eliminate FORC,"[2]; close condition, except at depth 30 cm",62.5 ppm
same,concentration sufficient to eliminate FORC,"[2]; open conditions, all depths examined (10, 20, 30 cm), 5 days",62.5 ppm
same,MFC,P. digitatum,12.5 µg/mL
same,phytotoxicity,Tomato plants; 250 ppm,No phytotoxicity
same,phytotoxicity,"Tomato plants; 1,000 ppm",No phytotoxicity
same,phytotoxicity,"Tomato plants; 4,000 ppm",No phytotoxicity
same,phytotoxicity,"Tomato plants; 20,000 ppm",No phytotoxicity
same,concentration at which elimination of Forl was achieved,[3],31.25 ppm
